Test results from US6080771A, “DC107 derivatives” (Kyowa Hakko Kogyo Co., Ltd., priority 1996, dated 2000).
Values after ≈ are worked out from the molar mass of the structure shown. Like-named read-outs stand apart in the source and are kept apart here.

Assays:
[1] = test system: Bacillus substilis NO. 10707; assay: Antimicrobial activity, agar dilution method (MIC), BS; assay type: cell-based
From the text: | BS: Bacillus substilis NO. 10707

[2] = test system: Sarcoma 180 mouse solid tumor; assay: Antitumor activity against Sarcoma 180 mouse solid tumor; assay type: in vivo, male ddY mice; conditions: Sarcoma-180, iv, 168 h, single i.v., tumor volume on day 7 from transplant, read-out: T/C (tumor volume ratio treated/control)
Description: To a ddY mouse were intraperitoneally transplanted 5×10^6 sarcoma 180 cells. On the seventh day from the transplant, the cells were collected from the ascites, washed once with sterilized physiological saline, and then diluted with sterilized physiological saline to prepare a cell suspension having a concentration of 5×10^7 cells/mL. This suspension was transplanted in an amount of 0.01 mL to a subcutaneous part of the right axilla of each of male ddY mice each weighing 20±1 g.
A test compound was dissolved in physiological saline containing polyoxyethylene sorbitan monolaurate. At 24 hours after the tumor transplant, 0.2 mL of the solution was intravenously administered to the tail of each of a group of five mice.

HeLa S3 cells = assay: HeLa S3 cell growth inhibition test (Neutral Red); assay type: cell-based; conditions: Homo sapiens, read-out: HeLa S3 Cell Growth Inhibition Activity, IC50
Description: In each well of a 96-well microtiter plate was placed 0.1 mL of HeLa S3 cells having a concentration of 8×10^3 cells/mL and prepared in an MEM culture medium containing 10% fetal bovine serum and 2 mM glutamine. After the cells were incubated overnight at 37° C. in a carbon dioxide incubator, a test compound suitably diluted with a medium was added to the wells in an amount of 0.05 mL for each well. The cells were incubated at 37° C. for 72 hours in a carbon dioxide incubator. After the culture supernatant was removed, 0.1 mL of a culture medium containing 0.02% Neutral Red was added to each well. The cells were then incubated at 37° C. for 1 hour in a carbon dioxide incubator to dye the cells. After the culture supernatant was removed, each residue was rinsed once with physiological saline and the pigment was extracted with 0.001N hydrochloric acid/30% ethanol. The absorbance at 550 nm of each extract was measured with a microplate reader. The drug concentration required for the 50% inhibition of cell growth, which is referred to as IC50, was calculated by comparing the absorbance for untreated cells with those for cells treated with the drug in known concentrations.

[3] = test system: Klebisiella pneumoniae ATCC 10031; assay: Antimicrobial activity, agar dilution method (MIC), KP; assay type: cell-based
From the text: | KP: Klebisiella pneumoniae ATCC 10031

Escherichia coli ATCC 26 = assay: Antimicrobial activity, agar dilution method (MIC), EC; assay type: cell-based; conditions: ATCC26, pH 7, read-out: MIC, EC
From the text: | EC: Escherichia coli ATCC 26

[4] = test system: Staphylococcus aureus ATCC 6538P; assay: Antimicrobial activity, agar dilution method (MIC), SA; assay type: cell-based; conditions: ATCC6538P, pH 7, read-out: MIC, SA
From the text: | SA: Staphylococcus aureus ATCC 6538P

[5] = test system: Enterococcus hirae ATCC 10541; assay: Antimicrobial activity, agar dilution method (MIC), EH; conditions: pH 7
Description: Antimicrobial activity was determined by the agar dilution method using a culture medium (pH 7) prepared by dissolving 3 g of Bacto-Tryptone (manufactured by Difco, Co.), 3 g of meat extract, 1 g of yeast extract, 1 g of glucose, and 16 g of agar in 1 l of water.
EH: Enterococcus hirae ATCC 10541

[6] = NO.10707, agar dilution, pH 7, read-out: MIC, BS
[7] = agar dilution, pH 7, read-out: MIC, KP

Row | Structure (SMILES) | MIC [1, 6] | response vs control in vivo at 8 mg/kg [2] | MIC [3, 7] | MIC (Escherichia coli ATCC 26) | MIC ([4]; agar dilution) | MIC, EH [5] | other results
1 | COCCOCCOCCOCCOCCOCC(=O)OC1/C=C(\C)CCC2(CC(=O)NC(C)c3nc(cs3)/C=C\C=C\C1=O)[S+]([O-])SC(=O)C2(C)O (centres unmarked) [Compound 5] | 0.2 µg/mL (≈ 0.249 µM) | 30% | 0.39 µg/mL (≈ 0.486 µM) | 3.1 µg/mL (≈ 3.86 µM) | 0.4 µg/mL (≈ 0.498 µM) | 0.20 µg/mL (≈ 0.249 µM) | IC50 (HeLa S3 cells; HeLa S3, 72 h): 67 nM
2 | C/C1=C\C(OC(=O)COCCOCCO)C(=O)/C=C/C=C\c2csc(n2)C(C)NC(=O)CC2(CC1)[S+]([O-])SC(=O)C2(C)O (centres unmarked) [Compound 8] | 0.13 µg/mL (≈ 0.198 µM) |  | 0.13 µg/mL (≈ 0.198 µM) | 2.1 µg/mL (≈ 3.2 µM) | 0.13 µg/mL (≈ 0.198 µM) | 0.13 µg/mL (≈ 0.198 µM) | response vs control in vivo at 4 mg/kg [2]: 36%
3 | COCCOCCOC(C)(C)C(=O)OC1/C=C(\C)CCC2(CC(=O)NC(C)c3nc(cs3)/C=C\C=C\C1=O)[S+]([O-])SC(=O)C2(C)O (centres unmarked) [Compound 10] | 0.041 µg/mL (≈ 0.0587 µM) |  | 0.65 µg/mL (≈ 0.93 µM) | 0.65 µg/mL (≈ 0.93 µM) | 0.081 µg/mL (≈ 0.116 µM) | 0.081 µg/mL (≈ 0.116 µM) | 
4 | COCCOCC(=O)OC1/C=C(\C)CCC2(C(C)(O)C(=O)SCc3oc(=O)oc3C)CC(=O)N(C(C)c3nc(cs3)/C=C\C=C\C1=O)[S+]2[O-] (centres unmarked) [Compound 11] |  |  |  |  |  |  | IC50 (HeLa S3 cells; HeLa S3, 72 hours, 37° C.): 30 nM
5 | COCCOCCOCCOCC(=O)OC1/C=C(\C)CCC2(C(C)(O)C(=O)SCc3oc(=O)oc3C)CC(=O)N(C(C)c3nc(cs3)/C=C\C=C\C1=O)[S+]2[O-] (centres unmarked) [Compound 13] |  | 39% |  |  |  |  | 
6 | C/C1=C\C(OC(=O)COCCOCCO)C(=O)/C=C/C=C\c2csc(n2)C(C)N2C(=O)CC(C(C)(O)C(=O)SCc3oc(=O)oc3C)(CC1)[S+]2[O-] (centres unmarked) [Compound 17] |  | 37% |  |  |  | 1.8 µg/mL (≈ 2.34 µM) | MIC ([1]; NO.10707, pH 7, read-out: MIC, BS): 1.82 µg/mL (≈ 2.37 µM); MIC ([3]; pH 7, read-out: MIC, KP): 1.8 µg/mL (≈ 2.34 µM); MIC [4]: 1.8 µg/mL (≈ 2.34 µM)
7 | COCCOCCOCCOCCOCCOCC(=O)OC1/C=C(\C)CCC2(C(C)(O)C(=O)SCC3=C(C)OC(C)(C)OC3=O)CC(=O)N(C(C)c3nc(cs3)/C=C\C=C\C1=O)[S+]2[O-] (centres unmarked) [Compound 21] |  |  |  |  |  |  | response vs control in vivo at 16 mg/kg ([2]; 16 mg/kg): 45%
8 | COCCOCCOCC(=O)OC1/C=C(\C)CCC2(C(C)(O)C(=O)SCOC(=O)CC[C@H](NC(=O)OC(C)(C)C)C(=O)OC(C)(C)C)CC(=O)N(C(C)c3nc(cs3)/C=C\C=C\C1=O)[S+]2[O-] (some centres unmarked) [Compound 23] |  | 48% |  |  |  |  | IC50 (HeLa S3 cells; HeLa S3, 72 hours, 37° C.): 43 nM
9 | COCCOCCOCCOCCOCCOCC(=O)OC1/C=C(\C)CCC2(C(C)(O)C(=O)SCOC(=O)CNC(=O)OC(C)(C)C)CC(=O)N(C(C)c3nc(cs3)/C=C\C=C\C1=O)[S+]2[O-] (centres unmarked) [Compound 24] |  |  |  |  |  |  | IC50 (HeLa S3 cells; HeLa S3, 72 hours, 37° C.): 21 nM
10 | C/C1=C\C(OC(=O)COCCOCCOCCOCCO)C(=O)/C=C/C=C\c2csc(n2)C(C)NC(=O)CC2(CC1)[S+]([O-])SC(=O)C2(C)O (centres unmarked) [Compound 27] | 0.13 µg/mL (≈ 0.175 µM) | 18% | 0.065 µg/mL (≈ 0.0873 µM) | 16.7 µg/mL (≈ 22.4 µM) | 0.13 µg/mL (≈ 0.175 µM) | 0.065 µg/mL (≈ 0.0873 µM) | 
11 | COCCOCCOCC(=O)OC1/C=C(\C)CCC2(C(C)(O)C(=O)SCOC(=O)CC[C@H](NC(=O)[C@@]34O[C@H]5COC(C)(C)O[C@H]5[C@@H]3OC(C)(C)O4)C(=O)OC)CC(=O)N(C(C)c3nc(cs3)/C=C\C=C\C1=O)[S+]2[O-] (some centres unmarked) [Compound 28] |  | 31% |  |  |  |  | 
12 | COCCOCCOCC(=O)OC1/C=C(\C)CCC2(C(C)(O)C(=O)SCOC(=O)CC[C@H](NC(=O)C3(C)COC(C)(C)OC3)C(=O)OC)CC(=O)N(C(C)c3nc(cs3)/C=C\C=C\C1=O)[S+]2[O-] (some centres unmarked) [Compound 29] |  | 47% |  |  |  |  | 
13 | COCCOCCOCC(=O)OCCOCCOCC(=O)OC1/C=C(\C)CCC2(CC(=O)NC(C)c3nc(cs3)/C=C\C=C\C1=O)[S+]([O-])SC(=O)C2(C)O (centres unmarked) [Compound 30] |  |  |  |  |  |  | response vs control in vivo at 4 mg/kg [2]: 43%
